In PubChem BioAssay AID1963826 (Molecular Pharmacology Branch, DTP, NCI, 2024):

Tested on: 926638-142-R-J1-PDC complex spheroid viability
Test: Anticancer human tumor 926638-142-R-J1-PDC patient-derived endometrial carcinoma cell line growth inhibition [POLQ]
Settings: for IC50: curve of first compound; for viability, T/C: stronger effect = lower value
In short: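 Three-cell-type spheroids modelling solid tumor plus stroma served as the readout system; POL inhibitors were tested individually and in combination, concentration ranges set by clinical Cmax where known.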

[1] = second compound 0.0316 µM, first compound 0.0316 µM
[2] = second compound 0.0316 µM, first compound 0.1 µM
[3] = second compound 0.0316 µM, first compound 0.316 µM
[4] = second compound 0.0316 µM, first compound 1 µM
[5] = second compound 0.1 µM, first compound 0.0316 µM
[6] = second compound 0.1 µM, first compound 0.1 µM
[7] = second compound 0.1 µM, first compound 0.316 µM
[8] = second compound 0.1 µM, first compound 1 µM
[9] = second compound 0.316 µM, first compound 0.0316 µM
[10] = second compound 0.316 µM, first compound 0.1 µM
[11] = second compound 0.316 µM, first compound 0.316 µM
[12] = second compound 0.316 µM, first compound 1 µM
[13] = second compound 1 µM, first compound 0.0316 µM
[14] = second compound 1 µM, first compound 0.1 µM
[15] = second compound 1 µM, first compound 0.316 µM
[16] = second compound 1 µM, first compound 1 µM
[17] = second compound 3.16 µM, first compound 0.0316 µM
[18] = second compound 3.16 µM, first compound 0.1 µM
[19] = second compound 3.16 µM, first compound 0.316 µM
[20] = second compound 3.16 µM, first compound 1 µM
[21] = second compound 10 µM, first compound 0.0316 µM
[22] = second compound 10 µM, first compound 0.1 µM
[23] = second compound 10 µM, first compound 0.316 µM
[24] = second compound 10 µM, first compound 1 µM
[25] = second compound 0.0316 µM, first compound 3.16 µM
[26] = second compound 0.0316 µM, first compound 10 µM
[27] = second compound 0.1 µM, first compound 3.16 µM
[28] = second compound 0.1 µM, first compound 10 µM
[29] = second compound 0.316 µM, first compound 3.16 µM
[30] = second compound 0.316 µM, first compound 10 µM
[31] = second compound 1 µM, first compound 3.16 µM
[32] = second compound 1 µM, first compound 10 µM
[33] = second compound 3.16 µM, first compound 3.16 µM
[34] = second compound 3.16 µM, first compound 10 µM
[35] = second compound 10 µM, first compound 3.16 µM
[36] = second compound 10 µM, first compound 10 µM
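Further: spheroids exposed to drugs for one week before readout.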
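Wherever viability, T/C is given: percent viability relative to DMSO vehicle control wells set as 100%.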

## C=CCn1c(=O)c2cnc(Nc3ccc(N4CCN(C)CC4)cc3)nc2n1-c1cccc(C(C)(C)O)n1 + COC1C(OC(N)=O)C(O)C(Oc2ccc3c(O)c(NC(=O)c4ccc(O)c(CC=C(C)C)c4)c(=O)oc3c2C)OC1(C)C
Second compound 0.0316 µM
  IC50: 494 nM
Second compound 0.1 µM
  IC50: 445 nM
Second compound 0.316 µM
  IC50: 414 nM
Second compound 1 µM
  IC50: 339 nM
Second compound 3.16 µM
  IC50: 277 nM
Second compound 10 µM
  IC50: 470 nM
Second compound 0.0316 µM, first compound 0.00316 µM
  viability, T/C: 106%
Second compound 0.0316 µM, first compound 0.01 µM
  viability, T/C: 95.1%
[1]
  viability, T/C: 93%
[2]
  viability, T/C: 85.3%
[3]
  viability, T/C: 54.1%
[4]
  viability, T/C: 41.6%
Second compound 0.1 µM, first compound 0.00316 µM
  viability, T/C: 102%
Second compound 0.1 µM, first compound 0.01 µM
  viability, T/C: 105%
[5]
  viability, T/C: 90.7%
[6]
  viability, T/C: 80%
[7]
  viability, T/C: 57.7%
[8]
  viability, T/C: 32.2%
Second compound 0.316 µM, first compound 0.00316 µM
  viability, T/C: 88%
Second compound 0.316 µM, first compound 0.01 µM
  viability, T/C: 86.1%
[9]
  viability, T/C: 78.3%
[10]
  viability, T/C: 87.4%
[11]
  viability, T/C: 52.8%
[12]
  viability, T/C: 40.7%
Second compound 1 µM, first compound 0.00316 µM
  viability, T/C: 84.4%
Second compound 1 µM, first compound 0.01 µM
  viability, T/C: 98.5%
[13]
  viability, T/C: 93.3%
[14]
  viability, T/C: 85.2%
[15]
  viability, T/C: 50.9%
[16]
  viability, T/C: 37.1%
Second compound 3.16 µM, first compound 0.00316 µM
  viability, T/C: 93.6%
Second compound 3.16 µM, first compound 0.01 µM
  viability, T/C: 104%
[17]
  viability, T/C: 89.1%
[18]
  viability, T/C: 70.9%
[19]
  viability, T/C: 47.7%
[20]
  viability, T/C: 37.7%
Second compound 10 µM, first compound 0.00316 µM
  viability, T/C: 98%
Second compound 10 µM, first compound 0.01 µM
  viability, T/C: 109%
[21]
  viability, T/C: 91.3%
[22]
  viability, T/C: 80.5%
[23]
  viability, T/C: 56.6%
[24]
  viability, T/C: 37.6%

## CC1COCCN1c1cc(-c2ccnn2C)c2ccnc(-c3ccn[nH]3)c2n1 (stereo not drawn) + COC1C(OC(N)=O)C(O)C(Oc2ccc3c(O)c(NC(=O)c4ccc(O)c(CC=C(C)C)c4)c(=O)oc3c2C)OC1(C)C
Second compound 0.0316 µM
  IC50: 455 nM
Second compound 0.1 µM
  IC50: 403 nM
Second compound 0.316 µM
  IC50: 517 nM
Second compound 1 µM
  IC50: 531 nM
Second compound 3.16 µM
  IC50: 493 nM
Second compound 10 µM
  IC50: 558 nM
[1]
  viability, T/C: 111%
[2]
  viability, T/C: 89.4%
[3]
  viability, T/C: 58.2%
[4]
  viability, T/C: 32.8%
[25]
  viability, T/C: 12.9%
[26]
  viability, T/C: 9.13%
[5]
  viability, T/C: 89.4%
[6]
  viability, T/C: 81.5%
[7]
  viability, T/C: 53.2%
[8]
  viability, T/C: 30.9%
[27]
  viability, T/C: 11.5%
[28]
  viability, T/C: 7.32%
[9]
  viability, T/C: 107%
[10]
  viability, T/C: 91.6%
[11]
  viability, T/C: 68.8%
[12]
  viability, T/C: 25.9%
[29]
  viability, T/C: 13.6%
[30]
  viability, T/C: 7.15%
[13]
  viability, T/C: 96.3%
[14]
  viability, T/C: 92.5%
[15]
  viability, T/C: 67.6%
[16]
  viability, T/C: 28.3%
[31]
  viability, T/C: 11.3%
[32]
  viability, T/C: 7.92%
[17]
  viability, T/C: 90.6%
[18]
  viability, T/C: 80.3%
[19]
  viability, T/C: 64.5%
[20]
  viability, T/C: 28.3%
[33]
  viability, T/C: 15.1%
[34]
  viability, T/C: 8.17%
[21]
  viability, T/C: 91.5%
[22]
  viability, T/C: 87.6%
[23]
  viability, T/C: 66.8%
[24]
  viability, T/C: 32.6%
[35]
  viability, T/C: 13.8%
[36]
  viability, T/C: 9.27%

## CCCS(=O)(=O)Nc1ccc(F)c(C(=O)c2c[nH]c3ncc(-c4ccc(Cl)cc4)cc23)c1F + COC1C(OC(N)=O)C(O)C(Oc2ccc3c(O)c(NC(=O)c4ccc(O)c(CC=C(C)C)c4)c(=O)oc3c2C)OC1(C)C
Second compound 0.0316 µM
  IC50: 8720 nM
Second compound 0.1 µM
  IC50: 9760 nM
Second compound 0.316 µM
  IC50: 9970 nM
Second compound 1 µM
  IC50: > 10000 nM
Second compound 3.16 µM
  IC50: 9780 nM
Second compound 10 µM
  IC50: 9920 nM
[1]
  viability, T/C: 112%
[2]
  viability, T/C: 89.5%
[3]
  viability, T/C: 93.1%
[4]
  viability, T/C: 122%
[25]
  viability, T/C: 86.4%
[26]
  viability, T/C: 45%
[5]
  viability, T/C: 108%
[6]
  viability, T/C: 105%
[7]
  viability, T/C: 83.3%
[8]
  viability, T/C: 112%
[27]
  viability, T/C: 91.3%
[28]
  viability, T/C: 49.1%
[9]
  viability, T/C: 110%
[10]
  viability, T/C: 114%
[11]
  viability, T/C: 118%
[12]
  viability, T/C: 116%
[29]
  viability, T/C: 105%
[30]
  viability, T/C: 49.6%
[13]
  viability, T/C: 84%
[14]
  viability, T/C: 95.7%
[15]
  viability, T/C: 104%
[16]
  viability, T/C: 101%
[31]
  viability, T/C: 98.8%
[32]
  viability, T/C: 52.2%
[17]
  viability, T/C: 89.7%
[18]
  viability, T/C: 92.3%
[19]
  viability, T/C: 89.2%
[20]
  viability, T/C: 95.2%
[33]
  viability, T/C: 95.5%
[34]
  viability, T/C: 49.2%
[21]
  viability, T/C: 81.9%
[22]
  viability, T/C: 93.7%
[23]
  viability, T/C: 90%
[24]
  viability, T/C: 84%
[35]
  viability, T/C: 83.7%
[36]
  viability, T/C: 49.5%

## CNCc1ccc(-c2[nH]c3cc(F)cc4c3c2CCNC4=O)cc1 + COC1C(OC(N)=O)C(O)C(Oc2ccc3c(O)c(NC(=O)c4ccc(O)c(CC=C(C)C)c4)c(=O)oc3c2C)OC1(C)C
Second compound 0.0316 µM
  IC50: > 10000 nM
Second compound 0.1 µM
  IC50: > 10000 nM
Second compound 0.316 µM
  IC50: > 10000 nM
Second compound 1 µM
  IC50: > 10000 nM
Second compound 3.16 µM
  IC50: > 10000 nM
Second compound 10 µM
  IC50: > 10000 nM
[1]
  viability, T/C: 92%
[2]
  viability, T/C: 82.2%
[3]
  viability, T/C: 96%
[4]
  viability, T/C: 81%
[25]
  viability, T/C: 87.7%
[26]
  viability, T/C: 76.7%
[5]
  viability, T/C: 78.9%
[6]
  viability, T/C: 99.9%
[7]
  viability, T/C: 77.2%
[8]
  viability, T/C: 89.2%
[27]
  viability, T/C: 80.1%
[28]
  viability, T/C: 81.2%
[9]
  viability, T/C: 90.5%
[10]
  viability, T/C: 81.1%
[11]
  viability, T/C: 84.9%
[12]
  viability, T/C: 90.5%
[29]
  viability, T/C: 101%
[30]
  viability, T/C: 84.6%
[13]
  viability, T/C: 77.3%
[14]
  viability, T/C: 73.9%
[15]
  viability, T/C: 73.8%
[16]
  viability, T/C: 89.9%
[31]
  viability, T/C: 94.8%
[32]
  viability, T/C: 69%
[17]
  viability, T/C: 82.3%
[18]
  viability, T/C: 93.9%
[19]
  viability, T/C: 90.7%
[20]
  viability, T/C: 71.2%
[33]
  viability, T/C: 88.2%
[34]
  viability, T/C: 85.2%
[21]
  viability, T/C: 89.8%
[22]
  viability, T/C: 79.9%
[23]
  viability, T/C: 83.8%
[24]
  viability, T/C: 70.5%
[35]
  viability, T/C: 84.4%
[36]
  viability, T/C: 83%
